Assay results reported in BindingDB's records for doi:10.1021/bi0500628 (Merck Research Laboratories, 2005).

Columns and labels:
[1] = molecular target: Insulin-like growth factor 1 receptor (Homo sapiens, UniProt P08069); experiment: Homogeneous Time-Resolved Fluorescence (HTRF) Assay; settings: pH 7.4; 22 °C
Excerpt: (§1) The assay uses purified enzyme interacting with biotinylated peptide substrate.HTRF is based on the proximity of europium cryptate (donor fluorophore)-labeled antiphosphotyrosine and streptavidin labeled with APC (allophycocyanin), which have been brought together by a binding reaction. When the two entities come into close proximity and upon excitation, energy transfer occurs and APC re-emits at 665 nm. Relative fluorescence units were read on a Discovery plate reader (Packard). The IC50 values for inhibitors were determined by a four-parameter sigmoidal curve fit.

Insulin receptor = Insulin receptor (Homo sapiens, UniProt P06213); experiment: as above; settings: pH 7.4; 22 °C
Excerpt: as §1

Sequence of Insulin receptor (P06213 28-758 limits assumed): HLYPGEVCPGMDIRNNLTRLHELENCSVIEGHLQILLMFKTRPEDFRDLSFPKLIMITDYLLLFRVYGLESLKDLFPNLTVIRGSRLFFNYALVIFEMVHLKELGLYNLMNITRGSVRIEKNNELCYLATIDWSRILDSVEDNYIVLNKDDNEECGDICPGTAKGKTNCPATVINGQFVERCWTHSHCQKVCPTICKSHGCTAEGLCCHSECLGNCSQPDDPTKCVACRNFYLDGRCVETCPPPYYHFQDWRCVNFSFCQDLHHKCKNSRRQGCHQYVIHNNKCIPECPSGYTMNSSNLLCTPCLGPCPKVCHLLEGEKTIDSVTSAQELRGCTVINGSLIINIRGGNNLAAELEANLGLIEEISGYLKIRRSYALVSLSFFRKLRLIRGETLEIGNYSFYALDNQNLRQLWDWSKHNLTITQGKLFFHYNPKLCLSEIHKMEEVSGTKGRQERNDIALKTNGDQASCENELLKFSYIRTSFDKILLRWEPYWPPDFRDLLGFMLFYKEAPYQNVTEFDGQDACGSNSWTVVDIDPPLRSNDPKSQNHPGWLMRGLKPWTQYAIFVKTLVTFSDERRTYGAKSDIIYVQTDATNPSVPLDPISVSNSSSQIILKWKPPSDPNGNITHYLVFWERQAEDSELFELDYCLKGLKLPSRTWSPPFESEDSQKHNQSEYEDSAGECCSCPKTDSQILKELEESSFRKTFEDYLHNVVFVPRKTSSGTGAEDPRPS
Sequence of Insulin receptor (P06213 763-1382 limits assumed): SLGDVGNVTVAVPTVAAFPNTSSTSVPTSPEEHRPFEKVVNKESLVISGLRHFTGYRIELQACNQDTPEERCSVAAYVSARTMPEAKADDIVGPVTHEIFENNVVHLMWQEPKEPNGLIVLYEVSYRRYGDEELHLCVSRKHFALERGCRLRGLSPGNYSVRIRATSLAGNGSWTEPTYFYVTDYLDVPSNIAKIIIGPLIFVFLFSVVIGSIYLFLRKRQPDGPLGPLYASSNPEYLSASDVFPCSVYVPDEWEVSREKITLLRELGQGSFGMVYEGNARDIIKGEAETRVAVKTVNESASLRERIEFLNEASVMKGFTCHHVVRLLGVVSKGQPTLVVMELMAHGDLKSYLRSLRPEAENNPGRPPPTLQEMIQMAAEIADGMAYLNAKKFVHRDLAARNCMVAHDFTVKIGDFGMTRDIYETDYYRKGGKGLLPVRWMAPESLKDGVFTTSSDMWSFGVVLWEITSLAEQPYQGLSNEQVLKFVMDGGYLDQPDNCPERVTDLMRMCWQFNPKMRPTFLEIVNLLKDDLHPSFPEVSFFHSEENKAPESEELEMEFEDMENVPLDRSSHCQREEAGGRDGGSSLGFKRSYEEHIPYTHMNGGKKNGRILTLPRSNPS
Sequence of Insulin-like growth factor 1 receptor (P08069 31-736 limits assumed): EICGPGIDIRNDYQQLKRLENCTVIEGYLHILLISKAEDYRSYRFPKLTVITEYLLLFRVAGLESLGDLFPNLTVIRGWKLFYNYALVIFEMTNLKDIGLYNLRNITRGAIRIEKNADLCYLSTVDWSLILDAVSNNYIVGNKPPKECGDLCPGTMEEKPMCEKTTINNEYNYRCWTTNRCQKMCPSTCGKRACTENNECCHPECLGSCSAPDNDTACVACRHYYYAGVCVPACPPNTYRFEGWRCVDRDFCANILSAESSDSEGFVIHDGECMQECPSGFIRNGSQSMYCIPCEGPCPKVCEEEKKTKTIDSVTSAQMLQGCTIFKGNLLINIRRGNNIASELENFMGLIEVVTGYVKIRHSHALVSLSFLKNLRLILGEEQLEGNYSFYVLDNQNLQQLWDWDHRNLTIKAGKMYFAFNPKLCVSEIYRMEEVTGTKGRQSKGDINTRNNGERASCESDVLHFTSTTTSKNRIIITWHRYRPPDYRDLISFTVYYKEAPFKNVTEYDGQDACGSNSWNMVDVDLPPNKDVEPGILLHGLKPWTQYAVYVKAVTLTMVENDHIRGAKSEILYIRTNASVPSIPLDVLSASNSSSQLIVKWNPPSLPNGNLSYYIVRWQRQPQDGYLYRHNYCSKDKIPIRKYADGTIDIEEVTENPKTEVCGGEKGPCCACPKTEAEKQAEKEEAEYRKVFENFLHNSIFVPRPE
Sequence of Insulin-like growth factor 1 receptor (P08069 741-1367 limits assumed): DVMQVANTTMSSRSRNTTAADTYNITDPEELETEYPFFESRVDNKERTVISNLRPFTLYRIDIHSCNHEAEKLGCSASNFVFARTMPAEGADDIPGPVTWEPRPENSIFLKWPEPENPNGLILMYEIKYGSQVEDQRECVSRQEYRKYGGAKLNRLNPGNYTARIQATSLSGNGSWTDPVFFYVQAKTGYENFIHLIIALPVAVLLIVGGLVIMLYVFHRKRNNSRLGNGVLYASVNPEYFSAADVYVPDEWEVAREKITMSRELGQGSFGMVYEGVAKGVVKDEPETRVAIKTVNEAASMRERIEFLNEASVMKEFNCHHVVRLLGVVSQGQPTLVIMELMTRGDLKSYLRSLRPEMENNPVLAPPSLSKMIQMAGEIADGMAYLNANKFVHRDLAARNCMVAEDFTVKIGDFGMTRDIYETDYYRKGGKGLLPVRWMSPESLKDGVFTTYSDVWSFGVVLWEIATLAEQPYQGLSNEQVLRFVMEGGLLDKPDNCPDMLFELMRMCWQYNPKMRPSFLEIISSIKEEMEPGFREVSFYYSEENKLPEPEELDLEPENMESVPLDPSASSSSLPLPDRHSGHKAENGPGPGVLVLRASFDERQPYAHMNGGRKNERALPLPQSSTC

SMILES	IC50 [1] [µM]	IC50 (Insulin receptor) [µM]
CCOC(=O)c1[nH]c(C=O)c(C(=O)OCC)c1CC [2,4-diethyl 3-ethyl-5-formyl-1H-pyrrole-2,4-dicarboxylate]	1.1	5.4
CCOC(=O)c1[nH]c(CO)c(C(=O)OCC)c1C [2,4-diethyl 5-(hydroxymethyl)-3-methyl-1H-pyrrole-2,4-dicarboxylate]	> 100	> 100
CCOC(=O)c1[nH]c(C=O)c(C(=O)OCC)c1C [2,4-diethyl 5-formyl-3-methyl-1H-pyrrole-2,4-dicarboxylate]	2.7	12
CCOC(=O)c1c(CC)c(C(=O)OC(C)(C)C)n(C)c1C=O [2-tert-Butyl 4-Ethyl 3-Ethyl-5-formyl-1-methyl-1H-pyrrole-2,4-dicarboxylate]	4.3	12
CCOC(=O)c1c(C=O)[nH]c(C(=O)OC(C)(C)C)c1CC [2-tert-Butyl 4-Ethyl 3-Ethyl-5-formyl-1H-pyrrole-2,4-dicarboxylate]	0.49	2
CCN(CC)C(=O)c1[nH]c(C=O)c(C(=O)N(CC)CC)c1C [N,N,N,N-Tetraethyl-5-formyl-3-methyl-1H-pyrrole-2,4-dicarboxamide]	> 100	> 100
CCOC(=O)c1c(C=O)[nH]c(C(=O)NC(C)(C)C)c1CC [ethyl 5-(tert-butylcarbamoyl)-4-ethyl-2-formyl-1H-pyrrole-3-carboxylate]	2.6	17
COC(=O)[C@]1(O)C[C@@H]2O[C@@]1(C)n1c3ccccc3c3c4c(c5c6ccccc6n2c5c31)C(=O)NC4 [methyl (15R,16S,18S)-16-hydroxy-15-methyl-3-oxo-28-oxa-4,14,19-triazaoctacyclo[12.11.2.1^{15,18}.0^{2,6}.0^{7,27}.0^{8,13}.0^{19,26}.0^{20,25}]octacosa-1(26),2(6),7(27),8(13),9,11,20(25),21,23-nonaene-16-carboxylate]	0.47	0.21
